Results taken from patent US20250152613A1, “COMPOSITIONS AND METHODS FOR COVID-19 TREATMENT” (101 THERAPEUTICS LTD., priority 2022, published 2025).

Experiments:
[1] = system: moderate COVID-19 patients; test: Phase II/Phase III study of Compound 1 Vs Dexamethasone for moderate COVID-19 with Standard of Care; assay type: in vivo, human; conditions: expected
Procedure: A prospective, randomized, multicenter, parallel group, double-blind, adaptive Phase II/Phase III study to evaluate safety and efficacy of Compound 1 Vs Dexamethasone for moderate COVID-19 disease along with Standard of Care is performed. The total duration of treatment administration for all patients is 3 days. The endpoints of the study are to evaluate efficacy of Compound 1 versus dexamethasone in moderate COVID-19 patients.
Compound 1 is contained in vials, each vial containing 20 mg of Compound 1 to be reconstituted in saline (0.9% NaCl) for bolus intravenous (IV) injection of 5 ml of solution.
The study is designed to determine rate of treatment-emergent adverse events (AE) and serious adverse events (SAE) including changes in clinical condition, vital signs and laboratory parameters.
Other endpoints of the study include: lowering mortality 28 or 60 days from administration; lowering rate of Intensive care units (ICU) admission; lowering mechanical ventilation or vasopressor therapy (28 days follow-up); improved clinical recovery rate [Time Frame: Day 10]-Proportion of patients who recovered within 10 days for which recovery is defined when the patient improves by 2 points in 11-point ordinal scale; an improvement in temperature, heart rate and oxygen saturation on days 1, 2, 4 and 7; decrease in viral load relative to admission levels according to RT-PCR from nasopharyngeal swab on days 3, 5 and 10; changes in levels of CRP, ferritin and CBC with differential; change in cytokine profile and lymphocyte sub-populations; and measurement of ACTH and morning cortisol levels.
Approximately 318 eligible patients are randomized in a 1:1 ratio to one of 2 treatment groups. Group 1: Compound 1, 20 mg per day+Standard of care. Group 2: Dexamethasone 6 mg+Standard of care.
Total expected study duration is approximately 60 days consisting of: a screening period: 7 days (Day-7 to Day 1) prior to randomization. Treatment period: Day 1 to Day 3. End of treatment assessment: Day 3 (for patients receiving Compound 1) and Day X (for Dexamethasone arm, based on investigator' discretion). […]

[2] = system: bleomycin-induced PF mice model; test: bleomycin-induced pulmonary fibrosis (PF) mice model; assay type: in vivo, C57BL/6 mice
Text: Post COVID-19 pulmonary fibrosis (PF) is defined as the presence of persistent and different fibrotic tomographic changes, often combined with impairment in pulmonary function tests. The pathogenesis of post-COVID-19 PF is partially known and likely multifactorial. Excessive production of reactive oxygen species and non-protective mechanical ventilation are potential triggers for post-COVID-19 PF. To explore the beneficial effect of compound 1 in pulmonary fibrosis, a bleomycin-induced PF mice model was utilized. Bleomycin is known for its ability to induce lung injury resulting in an acute inflammatory response, and the inflammatory phase is followed by fibrotic changes. In this model, direct administration of bleomycin to the lungs decreases survival of treated mice, due to vast pulmonary damage. The study was performed in 5 treatment groups of C57BL/6 mice (n=10-12 per group) and included early or late treatment with compound 1 (1 mg/mouse), early treatment with dexamethasone (DEX) in an amount of 0.45 mg/mouse, vehicle, and naïve control groups. Early treatment was initiated on day 1, on the same day as bleomycin administration. Late treatment was initiated on day 14. The test items were injected in the vehicle, dexamethasone and Compound 1 early treatment groups, on days 1, 2, 3, 7, 14, 21 and 28. In the late treatment group, Compound 1 was administered on days 14, 15, 16, 21, 28 and 31. The test items were injected intravenously through the tail vein after pulmonary fibrosis model induction (bleomycin was induced by intratracheal administration of bleomycin (3.5 U/kg)). Animals were monitored for morbidity, mortality, body weight, and clinical signs. Selected clinical signs (i.e., physical appearance, activity, ability to respond to external stimulus, eyes, and respiration quality) were scored to provide a clinical score. Cytokine levels in BALF (Day 33) and serum (Days 17 & 32) were determined.

[3] = according to the literature; cited from earlier work
COVID-19 patients = conditions: diabetics; RECOVERY trial (Rayman et al. 2021); cited from earlier work
[4] = Compound 1 20 mg per day i.v. for 3 days + Standard of care vs Dexamethasone 6 mg
[5] = 10-30 mg i.v., single and 3 day repeated
[6] = out of 23 possibly or probably related AEs
[7] = early treatment from day 1, i.v., compound 1 1 mg/mouse, DEX 0.45 mg/mouse, day 33, mean±standard deviation
[8] = late treatment from day 14, i.v., 1 mg/mouse, day 33, mean±standard deviation
[9] = late treatment with Compound 1, day 33

## C[C@@H]1C[C@H]2[C@@H]3CCC4=C/C(=N/OCCCO[C@H]5O[C@H](CO)[C@@H](O)[C@H](O)[C@@H]5O)C=C[C@]4(C)[C@@]3(F)[C@@H](O)C[C@]2(C)[C@@]1(O)C(=O)CO [Compound 1, 1-((8S,9R,10S,11S,13S,14S,16R,17R,E)-9-fluoro-11,17-dihydroxy-10,13,16-trimethyl-3-((3-(((2S,3S,4S,5S,6R)-3,4,5-trihydroxy-6-(hydroxymethyl)tetrahydro-2H-pyran-2-yl)oxy)propoxy)imino)-6,7,8,9,10,11,12,13,14,15,16,17-dodecahydro-3H-cyclopenta[a]phenanthren-17-yl)-2-hydroxyethan-1-one]
[1]; [4]
  hyperglycemia relative to the dexamethasone group: lower
  recovery from moderate COVID-19 relative to the dexamethasone group: enhanced
[1]; Compound 1 20 mg per day i.v. for 3 days + Standard of care
  mortality: lower mortality
Healthy volunteers; 10, 20, 30 mg i.v.
  correlation between dose escalation and AEs frequency or severity: no correlation
Healthy volunteers; [5]
  AE reported after exposure to Investigational Product: 29
  AEs possibly related to the IP: 13
  AEs probably related to the IP: 10
  Dose-Limiting Toxicities (DLTs): No DLTs
  Serious Adverse Events (SAEs) or severe AEs: No Serious Adverse Events (SAEs) or severe AEs
  cases of hyperglycemia: single case
  possibly or probably related AEs, total: 23
  post exposure AEs assessed as not related: 6
Healthy volunteers; 15 healthy participants, 10, 20, 30 mg single i.v. doses and 30 mg once a day for 3 days, includes 4 before exposure
  total Adverse Events (AE) reported during the study: 33
Healthy volunteers; 4 hours post any of the 24 administrations
  blood glucose changes after administration: no changes
Healthy volunteers; all events
  severity of adverse events: mild to moderate
Healthy volunteers; one individual
  severity of the hyperglycemia event: mild and transient
Healthy volunteers; one individual, increased from 97
  Blood Glucose after increase: 105 mg/dL
Healthy volunteers; [6]
  anxiety, number: 1
  anxiety, percent: 4.34%
  chemistry AEs, number: 8
  chemistry AEs, percent: 34.8%
  fatigue reports, number: 2
  fatigue reports, percent: 8.7%
  hematology AEs, number: 6
  hematology AEs, percent: 26.1%
  hypertension, number: 1
  hypertension, percent: 4.34%
  insomnia, number: 2
  insomnia, percent: 8.7%
  noncardiac chest pain, number: 1
  noncardiac chest pain, percent: 4.34%
  skin rash, number: 2
  skin rash, percent: 8.7%
[2]; [7]
  % Fibrosis - Digital morphometry: 8.25 ± 1.26%
  Fibrosis score (MT): 2.25 ± 0.5
  Pathological score (H&E): 2.5 ± 0.58
[2]; [8]
  % Fibrosis - Digital morphometry: 5.2 ± 1.1%
  Fibrosis score (MT): 2 ± 0.7
  Pathological score (H&E): 2 ± 0.7
[2]; late treatment from day 14, compared with DEX and Compound 1 early groups, similar to naïve
  mortality rate (FIG. 1): lower mortality rate
[2]; late treatment with Compound 1
  overall effect on mortality and disease progression vs early treatment with DEX or Compound 1: more profound effect
[2]; [9]
  lung fibrosis by histopathological evaluation vs. vehicle control: reduction in lung fibrosis
  pathological and fibrosis scores and percentage of lung fibrosis compared to DEX treatment: slightly lower

## C[C@@H]1C[C@H]2[C@@H]3CCC4=CC(=O)C=C[C@]4(C)[C@@]3(F)[C@@H](O)C[C@]2(C)[C@@]1(O)C(=O)CO [DEX, dexamethasone, reference compound]
[3]
  most frequently reported adverse effect: insomnia
COVID-19 patients
  blood glucose levels: significantly elevated
[2]; mouse, in vivo, iv
  % Fibrosis - Digital morphometry: 6 ± 1.41%
  Fibrosis score (MT): 2.25 ± 0.5
  Pathological score (H&E): 2.25 ± 0.5
